Source: ChEMBL document CHEMBL5380816, “Inclusion of Nitrofurantoin into the Realm of Cancer Chemotherapy via Biology-Oriented Synthesis and Drug Repurposing” (J Med Chem, 2023)
Active and inactive are the calls of the source. The calls are words filed in the database; no cut-off is given here.

Assays:
[1] = Cytotoxicity in human WI-38 cells assessed as reduction in cell viability incubated for 72 hrs by MTT assay; format: toxicity, cell-based
[2] = Cytotoxicity in human WI-38 cells assessed as safe dose incubated for 72 hrs by MTT assay; format: toxicity, cell-based; conditions: read-out: EC100
Caco-2 [3] = experiment: Anticancer activity against human Caco-2 cells incubated for 72 hrs by MTT assay; format: functional, cell-based; conditions: Caco-2, 72 h
[4] = Selectivity index, ratio of IC50 for human WI-38 cells to IC50 for human Caco-2 cells
MCF7 [5] = experiment: Anticancer activity against human MCF7 cells incubated for 72 hrs by MTT assay; format: functional, cell-based; conditions: MCF7, 72 h
[6] = Selectivity index, ratio of IC50 for human WI-38 cells to IC50 for human MCF7 cells; format: toxicity; conditions: WI-38 cells versus MCF7 cells, read-out: Ratio IC50
HeLa [7] = experiment: Anticancer activity against human HeLa cells incubated for 72 hrs by MTT assay; format: functional, cell-based
[8] = Selectivity index, ratio of IC50 for human WI-38 cells to IC50 for human HeLa cells; format: toxicity; conditions: WI-38 cells versus HeLa cells, read-out: Ratio IC50
HepG2 [9] = experiment: Anticancer activity against human HepG2 cells incubated for 72 hrs by MTT assay; format: functional, cell-based; conditions: HepG2, 72 h
[10] = Selectivity index, ratio of IC50 for human WI-38 cells to IC50 for human HepG2 cells; format: toxicity; conditions: WI-38 cells versus HepG2 cells, read-out: Ratio IC50
MCF7 [11] = experiment: Potency index, ratio of 5-fluorouracil IC50 to test compound IC50 for antiproliferative activity against human MCF7 cells; format: functional
HepG2 [12] = experiment: Potency index, ratio of 5-fluorouracil IC50 to test compound IC50 for antiproliferative activity against human HepG2 cells; format: functional
Caco-2 [13] = experiment: Induction of apoptosis in human Caco-2 cells assessed as early apoptotic cells incubated at 0.098 uM for 72 hrs by annexin V-FITC based propidium iodide dual staining assay (reference value: 0.07%); format: functional
[14] = target: T1, Tumour suppressor p53/oncoprotein Mdm2 (Homo sapiens, UniProt P04637+Q00987); experiment: Inhibition of human recombinant MDM2/p53 interaction measured after 10 mins by ELISA method; format: protein assay
Target sequence in this assay (P04637 whole entry): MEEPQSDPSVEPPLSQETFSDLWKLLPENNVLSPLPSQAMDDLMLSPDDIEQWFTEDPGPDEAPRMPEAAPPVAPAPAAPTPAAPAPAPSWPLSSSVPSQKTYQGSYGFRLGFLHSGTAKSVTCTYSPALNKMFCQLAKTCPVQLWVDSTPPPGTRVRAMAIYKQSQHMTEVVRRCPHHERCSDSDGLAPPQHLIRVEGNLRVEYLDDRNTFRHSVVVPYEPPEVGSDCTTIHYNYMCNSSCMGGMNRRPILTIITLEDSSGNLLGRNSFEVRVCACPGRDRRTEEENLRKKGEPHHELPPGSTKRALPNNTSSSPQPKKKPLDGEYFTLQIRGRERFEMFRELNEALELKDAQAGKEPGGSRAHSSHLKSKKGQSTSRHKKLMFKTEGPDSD
Target sequence in this assay (Q00987 whole entry): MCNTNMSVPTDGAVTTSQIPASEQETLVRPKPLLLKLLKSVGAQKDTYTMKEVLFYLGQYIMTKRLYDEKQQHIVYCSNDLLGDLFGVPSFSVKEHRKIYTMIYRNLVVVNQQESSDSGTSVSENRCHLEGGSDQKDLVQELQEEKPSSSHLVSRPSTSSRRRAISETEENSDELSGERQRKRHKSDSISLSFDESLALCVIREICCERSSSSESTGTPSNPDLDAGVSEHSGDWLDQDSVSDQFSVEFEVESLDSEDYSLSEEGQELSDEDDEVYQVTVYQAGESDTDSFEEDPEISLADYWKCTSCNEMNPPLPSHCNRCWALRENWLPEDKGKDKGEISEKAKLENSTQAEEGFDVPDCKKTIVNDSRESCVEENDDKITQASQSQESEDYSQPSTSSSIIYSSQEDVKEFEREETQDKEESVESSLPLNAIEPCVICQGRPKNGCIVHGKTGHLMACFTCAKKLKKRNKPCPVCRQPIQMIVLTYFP

[15] = target: T1, Tumour suppressor p53/oncoprotein Mdm2; experiment: Potency index, ratio of nitrofurantoin IC50 to compound IC50 for inhibition of human recombinant MDM2/p53 interaction; format: protein assay
Target sequence in this assay (P04637 whole entry, looked up): as the sequence (P04637 whole entry) above
Target sequence in this assay (Q00987 whole entry, looked up): as the sequence (Q00987 whole entry) above

Caco-2 [16] = experiment: Induction of apoptosis in human Caco-2 cells assessed as increase in Bax expression level relative to nitrofurantoin; format: functional
MCF7 [17] = experiment: Induction of apoptosis in human MCF7 cells assessed as increase in Bax expression level relative to nitrofurantoin; format: functional
HepG2 [18] = experiment: Induction of apoptosis in human HepG2 cells assessed as increase in Bax expression level relative to nitrofurantoin; format: functional
HeLa [19] = experiment: Induction of apoptosis in human HeLa cells assessed as increase in Bax expression level relative to nitrofurantoin; format: functional
Caco-2 [20] = experiment: Induction of apoptosis in human Caco-2 cells assessed as increase in Bax expression level relative to 5-fluorouracil; format: functional
MCF7 [21] = experiment: Induction of apoptosis in human MCF7 cells assessed as increase in Bax expression level relative to 5-fluorouracil; format: functional
HepG2 [22] = experiment: Induction of apoptosis in human HepG2 cells assessed as increase in Bax expression level relative to 5-fluorouracil; format: functional
HeLa [23] = experiment: Induction of apoptosis in human HeLa cells assessed as increase in Bax expression level relative to 5-fluorouracil; format: functional
HeLa [24] = experiment: Induction of apoptosis in human HeLa cells assessed as increase in Bax expression level relative to control; format: functional
HepG2 [25] = experiment: Induction of apoptosis in human HepG2 cells assessed as increase in Bax expression level relative to control; format: functional
Caco-2 [26] = experiment: Induction of apoptosis in human Caco-2 cells assessed as decrease in Bcl-2 expression level incubated for 72 hrs relative to nitrofurantoin; format: functional; parameters: scale not given: the % may be the effect or the level left
MCF7 [27] = experiment: Induction of apoptosis in human MCF7 cells assessed as decrease in Bcl-2 expression level incubated for 72 hrs relative to nitrofurantoin; format: functional; parameters: scale not given: the % may be the effect or the level left
HepG2 [28] = experiment: Induction of apoptosis in human HepG2 cells assessed as decrease in Bcl-2 expression level incubated for 72 hrs relative to nitrofurantoin; format: functional; parameters: scale not given: the % may be the effect or the level left
HeLa [29] = experiment: Induction of apoptosis in human HeLa cells assessed as decrease in Bcl-2 expression level incubated for 72 hrs relative to nitrofurantoin; format: functional; parameters: scale not given: the % may be the effect or the level left
Caco-2 [30] = experiment: Induction of apoptosis in human Caco-2 cells assessed as decrease in Bcl-2 expression level incubated for 72 hrs relative to 5-fluorouracil; format: functional; parameters: scale not given: the % may be the effect or the level left
MCF7 [31] = experiment: Induction of apoptosis in human MCF7 cells assessed as decrease in Bcl-2 expression level incubated for 72 hrs relative to 5-fluorouracil; format: functional; parameters: scale not given: the % may be the effect or the level left
HepG2 [32] = experiment: Induction of apoptosis in human HepG2 cells assessed as decrease in Bcl-2 expression level incubated for 72 hrs relative to 5-fluorouracil; format: functional; parameters: scale not given: the % may be the effect or the level left
HeLa [33] = experiment: Induction of apoptosis in human HeLa cells assessed as decrease in Bcl-2 expression level incubated for 72 hrs relative to 5-fluorouracil; format: functional; parameters: scale not given: the % may be the effect or the level left
Caco-2 [34] = experiment: Induction of apoptosis in human Caco-2 cells assessed as ratio of gene expression activity in pro apoptotic Bax to anti apoptotic Bcl-2; format: functional
MCF7 [35] = experiment: Induction of apoptosis in human MCF7 cells assessed as ratio of gene expression activity in pro apoptotic Bax to anti apoptotic Bcl-2; format: functional
HeLa [36] = experiment: Induction of apoptosis in human HeLa cells assessed as ratio of gene expression activity in pro apoptotic Bax to anti apoptotic Bcl-2; format: functional
HepG2 [37] = experiment: Induction of apoptosis in human HepG2 cells assessed as ratio of gene expression activity in pro apoptotic Bax to anti apoptotic Bcl-2; format: functional
HeLa [38] = experiment: Induction of apoptosis in human HeLa cells assessed as viable cells incubated at 0.017 uM for 72 hrs by annexin V-FITC based propidium iodide dual staining assay (reference value: 97.23%); format: functional; conditions: read-out: Activity
MCF7 [39] = experiment: Antitumor activity against human MCF7 cells xenografted in immunocompromised BALB/c mouse model assessed as tumor size reduction administered at 50 mg/kg, ip for 21 days; format: functional, organism-based; conditions: time 21.0 day
MCF7 [40] = experiment: Antitumor activity against human MCF7 cells xenografted in immunocompromised BALB/c mouse model assessed as decrease in tumor maas administered at 50 mg/kg, ip for 21 days relative to control; format: functional; parameters: scale not given: the % may be the effect or the level left; conditions: time 21 day
MCF7 [41] = experiment: Induction of apoptosis in human MCF7 cells assessed as late apoptotic cells incubated at 0.11 uM for 72 hrs by annexin V-FITC based propidium iodide dual staining assay (reference value: 0.01%); format: functional
HepG2 [42] = experiment: Induction of apoptosis in human HepG2 cells assessed as viable cells incubated at 0.11 uM for 72 hrs by annexin V-FITC based propidium iodide dual staining assay (reference value: 97.27%); format: functional; conditions: read-out: Activity
MCF7 [43] = experiment: Induction of apoptosis in human MCF7 cells assessed as total apoptotic cells incubated at 0.11 uM for 72 hrs by annexin V-FITC based propidium iodide dual staining assay (reference value: 0.04 %); format: functional
dsDNA = experiment: Induction of damage in dsDNA (unknown origin) assessed as instantaneous DNA disruption by measuring decrease in fluorescence intensity at 100 uM incubated upto 160 mins by EvaGreen based fluorescence plate reader analysis; format: nucleic-acid assay

## O=C(CN1C(=O)CN(/N=C/c2ccc([N+](=O)[O-])o2)C1=O)c1ccc(Cl)cc1
[1]
  IC50 at 72 h: 251 nM
[2]
  MNTC at 72 h: 98 nM
Caco-2 [3]
  IC50: 134 nM
[4]
  Ratio IC50: 1.87
MCF7 [5]
  IC50: 117 nM
[6]
  selectivity ratio: 2.14
HeLa [7]
  IC50: 62 nM
[8]
  selectivity ratio: 4.04
HepG2 [9]
  IC50: 110 nM
[10]
  selectivity ratio: 2.29
MCF7 [11]
  Ratio IC50: 1.2
HepG2 [12]
  Ratio IC50: 1.6
Caco-2 [13]
  Activity: 8.53%
[14]
  IC50: 670 nM
[15]
  Ratio IC50: 2.4
Caco-2 [16]
  Activity: 70%
MCF7 [17]
  Activity: 70%
HepG2 [18]
  Activity: 70%
HeLa [19]
  Activity: 70%
Caco-2 [20]
  Activity: 70%
MCF7 [21]
  Activity: 70%
HepG2 [22]
  Activity: 70%
HeLa [23]
  Activity: 70%
HeLa [24]
  Activity: 300%
HepG2 [25]
  Activity: 300%
Caco-2 [26]
  Activity: 30%
MCF7 [27]
  Activity: 30%
HepG2 [28]
  Activity: 30%
HeLa [29]
  Activity: 30%
Caco-2 [30]
  Activity: 30%
MCF7 [31]
  Activity: 30%
HepG2 [32]
  Activity: 30%
HeLa [33]
  Activity: 30%
Caco-2 [34]
  Ratio: 3.396
MCF7 [35]
  Ratio: 5.104
HeLa [36]
  Ratio: 11.09
HepG2 [37]
  Ratio: 4.215

## O=c1[nH]cc(F)c(=O)[nH]1 [FLUOROURACIL]
[1]
  IC50 at 72 h: 192 nM
[2]
  MNTC at 72 h: 17 nM
Caco-2 [3]
  IC50: 266 nM
[4]
  Ratio IC50: 0.76
MCF7 [5]
  IC50: 235 nM
[6]
  selectivity ratio: 0.865
HeLa [7]
  IC50: 199 nM
[8]
  selectivity ratio: 1.02
HepG2 [9]
  IC50: 178 nM
[10]
  selectivity ratio: 1.13
HeLa [38]
  viability at 0.017 µM: 88.1%
Caco-2 [34]
  Ratio: 1.187
MCF7 [35]
  Ratio: 1.246
HeLa [36]
  Ratio: 1.257
HepG2 [37]
  Ratio: 1.247
MCF7 [39]
  Activity: Active
MCF7 [40]
  Activity: ~65%

## C#CCN1C(=O)CN(/N=C/c2ccc([N+](=O)[O-])o2)C1=O
[1]
  IC50 at 72 h: 306 nM
[2]
  MNTC at 72 h: 110 nM
Caco-2 [3]
  IC50: 99 nM
[4]
  Ratio IC50: 3.13
MCF7 [5]
  IC50: 111 nM
[6]
  selectivity ratio: 2.79
HeLa [7]
  IC50: 265 nM
[8]
  selectivity ratio: 1.16
HepG2 [9]
  IC50: 89 nM
[10]
  selectivity ratio: 3.46
MCF7 [11]
  Ratio IC50: 1.2
HepG2 [12]
  Ratio IC50: 1.2
MCF7 [41]
  Activity: 34.7%
HepG2 [42]
  viability at 0.11 µM: 32.1%
MCF7 [43]
  Activity: 38.72%
dsDNA
  Activity: Active
[14]
  IC50: 590 nM
[15]
  Ratio IC50: 2.7
Caco-2 [16]
  Activity: 70%
MCF7 [17]
  Activity: 70%
HepG2 [18]
  Activity: 70%
HeLa [19]
  Activity: 70%
Caco-2 [20]
  Activity: 70%
MCF7 [21]
  Activity: 70%
HepG2 [22]
  Activity: 70%
HeLa [23]
  Activity: 70%
HeLa [24]
  Activity: 300%
HepG2 [25]
  Activity: 300%
Caco-2 [26]
  Activity: 30%
MCF7 [27]
  Activity: 30%
HepG2 [28]
  Activity: 30%
HeLa [29]
  Activity: 30%
Caco-2 [30]
  Activity: 30%
MCF7 [31]
  Activity: 30%
HepG2 [32]
  Activity: 30%
HeLa [33]
  Activity: 30%
Caco-2 [34]
  Ratio: 5.278
MCF7 [35]
  Ratio: 4.453
HeLa [36]
  Ratio: 3.004
HepG2 [37]
  Ratio: 11.74
MCF7 [39]
  Activity: Active
MCF7 [40]
  Activity: ~65%

## NS(=O)(=O)c1ccc(-n2cc(CN3C(=O)CN(/N=C/c4ccc([N+](=O)[O-])o4)C3=O)nn2)cc1
[1]
  IC50 at 72 h: 249 nM
[2]
  MNTC at 72 h: 97 nM
Caco-2 [3]
  IC50: 80 nM
[4]
  Ratio IC50: 3.14
MCF7 [5]
  IC50: 74 nM
[6]
  selectivity ratio: 3.36
HeLa [7]
  IC50: 81 nM
[8]
  selectivity ratio: 3.08
HepG2 [9]
  IC50: 309 nM
[10]
  selectivity ratio: 0.807
MCF7 [11]
  Ratio IC50: 1.2
[14]
  IC50: 410 nM
[15]
  Ratio IC50: 3.6
Caco-2 [16]
  Activity: 70%
MCF7 [17]
  Activity: 70%
HepG2 [18]
  Activity: 70%
HeLa [19]
  Activity: 70%
Caco-2 [20]
  Activity: 70%
MCF7 [21]
  Activity: 70%
HepG2 [22]
  Activity: 70%
HeLa [23]
  Activity: 70%
Caco-2 [26]
  Activity: 30%
MCF7 [27]
  Activity: 30%
HepG2 [28]
  Activity: 30%
HeLa [29]
  Activity: 30%
Caco-2 [30]
  Activity: 30%
MCF7 [31]
  Activity: 30%
HepG2 [32]
  Activity: 30%
HeLa [33]
  Activity: 30%
Caco-2 [34]
  Ratio: 7.328
MCF7 [35]
  Ratio: 10.4
HeLa [36]
  Ratio: 6.36
HepG2 [37]
  Ratio: 2.326
